The text below walks through data of patent US6605115B1, “Method and composition for inhibiting cardiovascular cell proliferation” (Board of Trustees of the Leland Stanford Junior University, priority 1999, dated 2003).

One data set deals with cytokine-stimulated VSMC. The experiment in a line: Effect of arginine oligomers on NO production in cytokine-stimulated VSMC (NO2, Griess). The class given is cell-based, rat. On the procedure: Rat VSMCs were prepared from the media layer of thoracic aorta of Sprague-Dawley rats by the explant method. The cells were cultured in Dulbecco's modified Eagle's medium (DMEM, Gibco BRL, Gaithersburg, Md.) containing 10% fetal calf serum, 100 U/ml penicillin and 100 μg/ml streptomycin at 37° C. under a humidified atmosphere containing 5% CO2. After subconfluent growth, cells were cultured with MEM Select Amine Kit (Gibco BRL, Gaithersburg, Md.) to be treated by specific concentrations of extracellular free L-arginine. Experiments were performed using cultured cells at passage levels of 5-10.
Extracellular NO production was measured as its stable oxidative metabolite, nitrite (NO2). At the end of each incubation, samples of the medium (80 μl) were collected, and NO2 measurement was performed using the Griess reaction facilitated by a commercial calorimetric assay (Cayman Chemical, Ann Arbor, Mich.). Values of NO2 production were corrected with relative cell count assessed by a cell proliferation kit II (XTT) (Boeheringer Mannheim, Germany).
Subconfluent cells were pre-incubated with medium containing 100 μM arginine for 24 hours. The cells were then transiently pretreated with each arginine polymer for 30 minutes. After translocation, the cells were incubated with a mixture of IFN-γ (100 U/ml) and LPS (100 μg/ml) in medium containing 100 μM L-arginine for another 24 hours. In some experiments, L-NMMA (1 mM), a nitric oxide synthase inhibitor, was added to the medium.
Background: The Griess reaction detects nitrite, a stable product of nitric oxide.

Data set [1] relates to coronary vessels of transplanted PVG rat donor hearts. The experiment in a line: Heart transplant study (graft coronary artery disease, GCAD). The settings on record: for % affected vessels / % luminal narrowing / I/M ratio: intracoronary 50 uM, 30 minutes. It counts as in vivo. As for the experimental part:
In this study, PVG rat donor hearts (n=48) were transplanted heterotopically into the abdomen of ACI recipients. Donor hearts received either intracoronary PBS or intracoronary 50 uM (L)-arginine polymer (L-R5 or L-R9) for 30 minutes. (D-arginine polymers were not included in this study.) Each of these groups was further divided into 60 and 90 day study animals (n=6 each). Percent luminal narrowing, intima to media ratio (I/M), and percent affected vessels were determined as described in Example 11, below. Transfection efficiency was determined by infusing biotinylated R5 and R9, as in the preceding studies, and calculating the percentage of biotin positive nuclei divided by total number of nuclei.
PVG rat donor hearts (n=48) were transplanted heterotopically into the abdomen of ACI recipients. Donor hearts received either intracoronary PBS or intracoronary 50 uM (L)-arginine polymer (L-R5 or L-R9) for 30 minutes. Each group was further divided into 60 and 90 day study animals (n=6 each). Tissue cross sections (5μ) were stained with EVG (Elastica-van Gieson) preparation, and vessels were scored using computerized morphometry for analysis of % luminal narrowing, intima to media ratio (I/M), and % affected vessels. Transfection efficiency was determined by infusing biotinylated R5 and R9, as in preceding examples, and calculating the percentage of biotin positive nuclei divided by total number of nuclei. Results are described in Section IV C, above.

The subject of another data set is vein graft segments. The data set is described as follows: Ex vivo NOx production from vein graft harvested 3 days after surgery. The class given is in vivo, New Zealand white rabbits. The settings on record: A23187, 10.0 μM. As for the experimental part:
Vein grafts were harvested 3 days after surgery, as described in Example 7. Vein graft segments were incubated in 1 me of Hanks' buffered saline solution (HBSS, Irvine Scientific) containing Ca^2+ (1.0 mM) and L-arginine (100 μM, Sigma) at 37° C. for 2 hours. NOx (nitrate and nitrite) production was measured either in the absence (basal) or presence (stimulated) of calcium ionophore (A23187, 10.0 μM, Sigma). Samples of the medium (80 μL) were collected, and NOx measurement was performed using the Griess reaction facilitated by a commercial calorimetric assay (Cayman Chemical).

The subject of data set [2] is human umbilical vein endothelial cells (ECV304). The data set is described as follows: In vitro translocation of biotin-labeled peptides into endothelial cells. The class given is cell-based. The settings on record: endothelial cells. As for the experimental part: Spontaneously transformed human umbilical vein endothelial cells (ECV304, ATCC) were cultured in medium M199 (Irvine Scientific) containing 10% fetal bovine serum (FBS), 100 IU/ml penicillin and 100 μg/ml of streptomycin (Gibco BRL). Confluent cells were washed and placed in serum-free medium. After 2 hours, the cells were incubated in presence of biotin labeled peptides, as bL-R7, or bD-R7, or bL-K7 (0.1, 1.0, and 10.0 μM). After 30 minutes of incubation, cells were washed 3 times with phosphate-buffered saline (PBS), fixed in ethanol/acetone; washed in PBS; incubated for 30 minutes with peroxidase suppressor (ImmunoPure, Pierce) to block endogenous peroxidase activity; and then incubated with 5 μg/ml of horse-radish peroxidase (HRP) conjugated strepavidin (Pierce) for 30 minutes. Substrate of HRP, diaminobenzidine (DAB, Sigma), was added to the cells. The reaction was terminated by washing in distilled water after a 60-second incubation. This experiment was repeated 3 times.

Data set [3] relates to rabbit carotid artery segment. The data set is described as follows: Ex vivo translocation study, carotid artery segments. More on the design: species or system New Zealand white rabbits. As for the experimental part: After incubation with biotin labeled oligomer, vascular segments were washed, then frozen in OCT compound (Miles Scientific). Frozen sections, 5 μm thick, were fixed with acetone for 10 minutes. Internalized biotin was detected using the staining procedure described in Example 2. Methyl green was used for nuclear counter staining.
To quantify the efficiency of nuclear translocation, the numbers of both DAB positive nuclei and total nuclei were counted in the intima and media separately at ×400 magnification with a video image analysis system (Automatrix). The frequency of nuclear translocation was expressed as the percent staining of nuclei, defined as the ratio of the number of DAB positive nuclei to that of all nuclei, in the intima and media. Each protocol was repeated 4 times.
Both carotid artery and jugular vein segments of male New Zealand white rabbits were used. To test the dose dependence of R7 translocation, vascular segments were incubated for 30 minutes with either bL-R7 or bD-R7 solution (0.1, 1.0, and 10.0 μM) in serum-free Dulbecco's minimal essential medium (DMEM) (Gibco BRL). To test the incubation time dependence, vascular segments were incubated with 10.0 μM of biotin labeled R7 solution for 10 seconds, 60 seconds, 5 minutes, 10 minutes, and 30 minutes. Furthermore, to determine the ability of R7 to penetrate through the vessel wall, vascular segments were ligated one end, R7 containing medium was instilled, and the other end ligated so as to expose only the luminal surface to R7. The luminal surface of the vascular segment was exposed to bL-R7 or bD-R7 (10.0 μM) for 30 minutes. To test the temperature dependence of translocation, vascular segments were incubated with 10.0 μM of biotin labeled R7 solutions at 37° C. or 4° C. To determine the disappearance time course of translocated R7, vascular segments were incubated with biotin labeled R7 solutions (10.0 μM) at 37° C. for 30 minutes, and then reincubated in DMEM with 10% FBS up to 5 days. Vascular segments were harvested at 1, 2 and 5 days after initial incubation.

Data set [4] relates to rat vascular smooth muscle cells (VSMC). The experiment in a line: Translocation of biotin-labeled peptides into cultured VSMC (HRP-streptavidin/DAB staining). The settings on record: for internalized biotin signal (staining): 30 minutes. It counts as cell-based. On the procedure:
In the studies described below, transmembrane transport and cellular uptake of oligomers was assessed by incubating cells or tissue with biotin-oligomer conjugates, followed by treatment with horseradish peroxidase (HRP)-conjugated streptavidin and subsequent incubation with DAB (3,3′-diaminobenzidine), a substrate of the enzyme which produces a highly colored product.
Cultured VSMC (vascular smooth muscle cells) were treated, as described in Example 2, with biotinylated oligomers of arginine or lysine. After incubation, the cells were treated with HRP-streptavidin conjugate, then with DAB. Staining by the oxidation product was observed using light microscopy.
Rat VSMCs were grown on glass microscope slide chambers (Nunc Inc., Naperville, Ill.). Subconfluent cells were washed and placed in serum-free medium. After 2 hours, cells were treated with bR7, or bK7 (0.1 μM, 1.0 μM, 10 μM), at 37° C. for 30 minutes. To assess the role of endocytosis in cellular uptake of the peptides, experiments were performed at 4° C., and also in the presence of sodium azide (1.0%) for 30 minutes prior to exposure to the peptides. To assess the involvement of the basic amino acid transport system y+ in the translocation of peptides into the cell, experiments were performed in the presence of excess extracellular L-arginine (10 mM).
After 30 minutes of incubation with the peptides, cells were washed 3 times with phosphate-buffered saline (PBS), fixed for 5 minutes at −20° C. in ethanol/acetone, washed 3 times in PBS, incubated for 30 minutes with a peroxidase suppressor (ImmunoPure, Pierce, Rockford, Ill.) to block endogenous peroxidase activity and nonspecific binding, washed, and then incubated with 5 μg/ml of horseradish peroxidase (HRP) conjugated strepavidin (Pierce, Rockford, Ill.) for 30 minutes. Cells were washed 3 times with PBS, and a substrate of HRP, DAB (Sigma, St. Louis, […].), was added to the cells. The reaction was terminated by washing in distilled water after a 60-second incubation with DAB. Cell preparations were observed by conventional light microscopy (see FIG. 1). This experimental protocol was repeated 3 times.

Regarding nona-L-arginine [R9], the NO production entry in the data set with cytokine-stimulated VSMC (pretreatment 30 minutes, then IFN-γ and LPS, 100 μM extracellular L-arginine) is given as “dose-dependent increases in NO production at doses as low as 10 μM”. In addition, the “degree of enhancement of NO production” value in the data set with cytokine-stimulated VSMC (pretreatment 30 minutes, vs. vehicle treated cytokine-stimulated cells) was 44±5.2%. In addition, the “GCAD compared to PBS controls” value in data set [1] (60 and 90 days) is listed as “significant reduction in GCAD”. In data set [1] (60 days), the “% affected vessels” value is 6.5 ± 6.9%, the “% luminal narrowing” value turned out to be 3.2 ± 3.8% and the I/M ratio result is listed as “.03 ± .04”. Also, in data set [1] (90 days), the “% affected vessels” value stood at 4.9 ± 7.1%, the “% luminal narrowing” value was determined as 1.6 ± 3.3% and the I/M ratio result is “.01 ± .02”. Moreover, the “transfection of coronary vessels” value in data set [1] (biotinylated oligomer infused) was “marked transfection of the intima and media of coronary vessels”.

Turning to `CNc1ccc2oc(C[C@H]3O[C@@]4(CC[C@H]3C)O[C@H]([C@H](C)C(=O)c3ccc[nH]3)[C@H](C)C[C@H]4C)nc2c1C(=O)O` [Calcium ionophore, reference compound], the “NOx production by the vein grafts on calcium ionophore stimulation” value in the data set with vein graft segments was “did not significantly affect the NOx production”.

Turning to `CNC(=N)NCCC[C@H](N)C(=O)O` [L-NMMA, N^G-monomethyl L-arginine, reference compound], in the data set on cytokine-stimulated VSMC (L-NMMA (1 mM) added to R7 treated cells), the “enhancement of NO production in R7 treated cells after NO synthase inhibitor” value is “abolished”.

Regarding hepta-L-lysine [K7, reference compound], in the data set on cytokine-stimulated VSMC (100 μM, 30 minutes), the NO production entry is on record as “did not increase the NO production”.

biotin-labeled heptaarginine [bR7]: the internalized biotin entry in data set [2] (0.1 μM) was “internalized biotin was observed in the cytoplasm of all EC”; in data set [2] (10.0 μM for 30 minutes), “internalized biotin was detected not only in the cytoplasm but also in the nucleus of virtually all exposed endothelial cells”. Moreover, the “speed or efficacy of translocation into vascular tissue at 4° C.” value in data set [3] (10.0 μM, 4° C.) was “no apparent reduction in the speed or efficacy”. For the same molecule, the “biotin signals after intraluminal instillation” value in data set [3] (10.0 μM, 30 minutes of intraluminal exposure) is reported as “biotin signals were detected throughout the vessel, including the adventitial cells”. Besides, the “biotin signal in vascular cells” value in data set [3] (carotid artery, 10.0 μM, 30 minutes) is “a distinct biotin signal was observed in virtually all intimal cells, medial cells, and adventitial cells”. Further, in data set [3] (day 5 after exposure (10.0 μM), serum containing medium), the “biotin staining by day 5” value was “No significant positive staining”. The “internalized biotin signal (staining)” value in data set [4] (0.1 μM) was “internalized biotin was observed in all VSMCs”; in data set [4] (10 μM, 37° C.) it was “very intense staining, not only in the cytoplasm, but also in the nucleus of all VSMC”. Further, in data set [4] (4° C.), the “efficacy of translocation at 4° C.” value was “no apparent reduction was observed in the efficacy of bR7 translocation”. Besides, the “cytoplasmic and nuclear staining after sodium azide” value in data set [4] (cells exposed to 1% sodium azide for 30 minutes prior to incubation) is listed as “neither cytoplasmic nor nuclear staining was observed”. Further, the “translocation in presence of free L-arginine” value in data set [4] (free L-arginine up to 10 mM added) is listed as “Nor was translocation of bR7 inhibited”.
